According to PMC13085583 (Cell host & microbe, 2026):
Where two headings read alike, the source gives them in different places.

System: CbCdnB
Details: 10 mM Tris-HCl pH 7.4, 25 mM KCl, 20 mM MgCl2, 1 mM MnCl2, 37 °C

Sequence of CbCdnB (A0A0L9Y448 1-469): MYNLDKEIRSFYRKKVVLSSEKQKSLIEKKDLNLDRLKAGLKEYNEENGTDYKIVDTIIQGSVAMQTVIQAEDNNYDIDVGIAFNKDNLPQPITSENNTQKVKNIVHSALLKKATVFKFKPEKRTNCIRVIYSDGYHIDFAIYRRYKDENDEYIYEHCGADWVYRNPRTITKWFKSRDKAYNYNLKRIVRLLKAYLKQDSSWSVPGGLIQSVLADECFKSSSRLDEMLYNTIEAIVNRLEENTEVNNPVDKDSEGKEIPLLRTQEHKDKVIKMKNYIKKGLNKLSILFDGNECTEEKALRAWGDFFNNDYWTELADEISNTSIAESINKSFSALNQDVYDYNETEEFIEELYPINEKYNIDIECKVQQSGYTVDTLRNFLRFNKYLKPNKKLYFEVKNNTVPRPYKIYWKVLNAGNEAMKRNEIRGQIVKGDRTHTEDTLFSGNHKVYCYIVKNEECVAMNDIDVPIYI

Compound	ELISA of product 2′,3′-cGAMP (with GTP)	ELISA of product 2′,3′-cGAMP (with ATP)
Nc1ncnc2c1ncn2[C@@H]1O[C@H](COP(=O)(O)OP(=O)(O)OP(=O)(O)O)[C@@H](O)[C@H]1O [ATP]	enzyme reaction products produced when the indicated synthase is incubated with ATP and GTP	
Nc1nc2c(ncn2[C@@H]2O[C@H](COP(=O)(O)OP(=O)(O)OP(=O)(O)O)[C@@H](O)[C@H]2O)c(=O)[nH]1 [GTP]		enzyme reaction products produced when the indicated synthase is incubated with ATP and GTP
